Measurements from patent US9770520B2, “Chelate nanoemulsion for MRI” (GUERBET, priority 2011, dated 2017).

Molecular target: T1, ∞vβ3 (Homo sapiens, UniProt P05106+P06756)
T1 construct: performed on HUVEC cells overexpressing ∞vβ3; endogenous in cells; host or cells: HUVEC
Assay: IC50 by competition with echistatin 125I on HUVEC cells
Type: binding
Details: competition with echistatin-125I-SIB, read-out: IC50 (nM of targeting ligand)

CCCCCCCCCCCCCCCCCC(=O)OCC(COP(=O)(O)OCCNC(=O)OCCOCCOCCOCCOCCOCCOCCOCCOCCOCCOCCOCCOCCOCCOCCOCCOCCOCCOCCOCCOCCOCCOCCOCCOCCOCCOCCOCCOCCOCCOCCOCCOCCOCCOCCOCCOCCOCCOCCOCCOCCOCCOCCOCCOCCNc1c(NCCNC(=O)CCCOc2cc(C)c(S(=O)(=O)CNC(NC(=O)CCCCc3ccc4c(n3)NCCC4)C(=O)O)c(C)c2)c(=O)c1=O)OC(=O)CCCCCCCCCCCCCCCCC (stereo not shown) [Example 6]
IC50: 0.4 nM
